Here are results for 32 molecules from patent US20080139558A1, “QUINOLONES USEFUL AS INDUCIBLE NITRIC OXIDE SYNTHASE INHIBITORS” (KALYPSYS, INC., priority 2006, published 2008).

T1 sequence (P35228 whole entry): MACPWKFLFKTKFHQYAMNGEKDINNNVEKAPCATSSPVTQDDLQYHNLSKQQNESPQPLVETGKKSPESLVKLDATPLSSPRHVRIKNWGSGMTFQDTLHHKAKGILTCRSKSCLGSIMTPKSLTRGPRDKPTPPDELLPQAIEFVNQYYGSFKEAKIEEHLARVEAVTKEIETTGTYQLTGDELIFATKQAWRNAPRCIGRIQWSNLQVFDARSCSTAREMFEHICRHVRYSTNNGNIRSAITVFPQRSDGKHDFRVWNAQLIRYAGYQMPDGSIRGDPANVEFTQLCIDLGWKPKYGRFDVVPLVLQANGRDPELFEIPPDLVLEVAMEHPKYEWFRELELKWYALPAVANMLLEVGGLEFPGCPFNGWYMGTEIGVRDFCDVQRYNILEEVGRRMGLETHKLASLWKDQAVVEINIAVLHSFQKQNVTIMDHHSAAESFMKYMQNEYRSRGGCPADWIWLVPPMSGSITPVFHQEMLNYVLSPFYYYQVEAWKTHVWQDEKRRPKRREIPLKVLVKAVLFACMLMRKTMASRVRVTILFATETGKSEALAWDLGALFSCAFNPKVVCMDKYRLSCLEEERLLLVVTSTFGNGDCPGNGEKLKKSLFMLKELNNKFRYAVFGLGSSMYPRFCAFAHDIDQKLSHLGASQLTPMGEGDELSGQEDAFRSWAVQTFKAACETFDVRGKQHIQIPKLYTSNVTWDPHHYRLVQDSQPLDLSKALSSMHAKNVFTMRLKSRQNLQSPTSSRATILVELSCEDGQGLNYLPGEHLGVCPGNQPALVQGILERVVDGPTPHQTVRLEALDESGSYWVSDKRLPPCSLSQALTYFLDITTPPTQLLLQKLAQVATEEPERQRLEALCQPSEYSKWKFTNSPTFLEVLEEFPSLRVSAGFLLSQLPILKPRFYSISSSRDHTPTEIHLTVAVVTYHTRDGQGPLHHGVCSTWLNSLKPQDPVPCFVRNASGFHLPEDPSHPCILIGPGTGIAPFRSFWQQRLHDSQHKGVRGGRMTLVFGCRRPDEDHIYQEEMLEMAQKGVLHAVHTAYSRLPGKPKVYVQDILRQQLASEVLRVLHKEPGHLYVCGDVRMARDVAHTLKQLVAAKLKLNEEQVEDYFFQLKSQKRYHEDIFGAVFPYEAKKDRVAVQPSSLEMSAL

The experiment addresses T1, human iNOS (Homo sapiens, UniProt P35228).
T1 construct: expressed in transfected cells; host or cells: HEK293
Description: DAN assay of nitric oxide production (hiNOS). It is filed as cell-based. The settings on record: enzyme expressed in HEK293 cells transiently transfected with human iNOS. The text has this: The source of nitric oxide synthase (NOS) enzyme can be generated in several ways including induction of endogenous iNOS using cytokines and/or lipopolysaccharide (LPS) in various cell types known in the art. Alternatively, the gene encoding the enzyme can be cloned and the enzyme can be generated in cells via heterologous expression from a transient or stable expression plasmid with suitable features for protein expression as are known in the art. Enzymatic activity (nitric oxide production) is calcium independent for iNOS, while the constitutive NOS isoforms, nNOS and eNOS, become active with the addition of various cofactors added to cellular media or extract as are well known in the art. Enzymes specified in Table 1 were expressed in HEK293 cells transiently transfected with human iNOS.
A major metabolic pathway for nitric oxide is to nitrate and nitrite, which are stable metabolites within tissue culture, tissue, plasma, and urine (S Moncada, A Higgs, N Eng J Med 329, 2002 (1993)).
The level of nitrate or nitrite in the specimen can be quantified by any method known in the art which provides adequate sensitivity and reproducibility. A variety of protocols have also been described for detecting and quantifying nitrite and nitrate levels in biological fluids by ion chromatography (e.g., A Everett et al., J. Chromatogr. 706, 437 (1995); J M Monaghan et al., J. Chromatogr. 770, 143 (1997)), high-performance liquid chromatography (e.g., M Kelm et al., Cardiovasc. Res. 41, 765 (1999)), and capillary electrophoresis (MA Friedberg et al., J. Chromatogr. 781, 491 (1997)). For example, 2,3-diaminonaphthalene reacts with the nitrosonium cation that forms spontaneously from NO to form the fluorescent product 1H-naphthotriazole. Using 2,3-diaminonaphthalene (“DAN”), researchers have developed a rapid, quantitative fluorometric assay that can detect from 10 nM to 10 μM nitrite and is compatible with a multi-well microplate format. […] DAN reacts with nitrite ion and gives fluorescent naphthotriazole (MC Carré et al., Analusis 27, 835-838 (1999)). Table 1 provides the test results of various compounds of the subject invention using the DAN assay.
A specimen can be processed prior to determination of nitrate or nitrite as required by the quantification method, or in order to improve the results, or for the convenience of the investigator. For example, processing can involve centrifuging, filtering, or homogenizing the sample. If the sample is whole blood, the blood can be centrifuged to remove cells and the nitrate or nitrite assay performed on the plasma or serum fraction. If the sample is tissue, the tissue can be dispersed or homogenized by any method known in the art prior to determination of nitrate or nitrite. It may be preferable to remove cells and other debris by centrifugation or another method and to determine the nitrate or nitrite level using only the fluid portion of the sample, or the extracellular fluid fraction of the sample. The sample can also be preserved for later determination, for example by freezing of urine or plasma samples. When appropriate, additives may be introduced into the specimen to preserve or improve its characteristics for use in the nitrate or nitrite assay.
The “level” of nitrate, nitrite, or other NO-related product usually refers to the concentration (in moles per liter, micromoles per liter, or other suitable units) of nitrate or nitrite in the specimen, or in the fluid portion of the specimen. However, other units of measure can also be used to express the level of nitrate or nitrite. For example, an absolute amount (in micrograms, milligrams, nanomoles, moles, or other suitable units) can be used, particularly if the amount refers back to a constant amount (e.g., grams, kilograms, milliliters, liters, or other suitable units) of the specimens under consideration. A number of commercially available kits can be used. […]
Regarding `COc1ccc(N(Cc2cc(=O)[nH]c3ccccc23)C(=O)c2ccco2)cc1` [Example 10, N-(4-Methoxyphenyl)-N-[(2-oxo-1,2-dihydroquinolin-4-yl)methyl]-2-furamide], the EC50 (usually the concentration that produces a half-maximal response) was ≤ 5 µM.

Take `Cc1ccc(N(Cc2cc(=O)[nH]c3ccccc23)C(=O)c2ccco2)cc1` [Example 11, N-(4-Methylphenyl)-N-[(2-oxo-1,2-dihydroquinolin-4-yl)methyl]-2-furamide]: the EC50 was ≤ 5 µM.

As to `O=C(c1ccco1)N(Cc1cc(=O)[nH]c2ccccc12)c1ccncc1` [Example 13, N-[(2-Oxo-1,2-dihydroquinolin-4-yl)methyl]-N-pyridin-4-yl-2-furamide], the EC50 was ≤ 5 µM.

With `O=C(c1ccco1)N(Cc1cc(=O)[nH]c2ccccc12)c1cccc(Cl)c1` [Example 14, N-(3-Chlorophenyl)-N-[(2-oxo-1,2-dihydroquinolin-4-yl)methyl]-2-furamide], the EC50 was > 5 µM.

As to `CN(Cc1cc(=O)[nH]c2ccccc12)c1ccccc1` [Example 15, 4-[(Methyl-phenyl-amino)-methyl]-1H-quinolin-2-one], the concentration giving a half-maximal response (EC50) was ≤ 5 µM.

`Cc1cccc2c(CN(C(=O)c3ccco3)c3ccccc3)cc(=O)[nH]c12` [Example 16, N-((8-Methyl-2-oxo-1,2-dihydroquinolin-4-yl)methyl)-N-phenylfuran-2-carboxamide]: the half-maximal effective concentration (EC50) is ≤ 5 µM.

On to `O=C(c1ccco1)N(Cc1cc(=O)[nH]c2c(F)cccc12)c1ccccc1` [Example 17, N-((8-Fluoro-2-oxo-1,2-dihydroquinolin-4-yl)methyl)-N-phenylfuran-2-carboxamide], for which the EC50 is > 5 µM.

Consider `O=C(c1ccco1)N(Cc1cc(=O)[nH]c2ccc(F)cc12)c1ccccc1` [Example 18, N-((6-Fluoro-2-oxo-1,2-dihydroquinolin-4-yl)methyl)-N-phenylfuran-2-carboxamide], for which the EC50 is > 5 µM.

`COc1ccc2[nH]c(=O)cc(CN(C(=O)c3ccco3)c3ccccc3)c2c1` [Example 19, N-((6-Methoxy-2-oxo-1,2-dihydroquinolin-4-yl)methyl)-N-phenylfuran-2-carboxamide]: the EC50 is ≤ 5 µM.

`Cc1ccc2c(CN(C(=O)c3ccco3)c3ccccc3)cc(=O)[nH]c2c1` [Example 20, N-((7-Methyl-2-oxo-1,2-dihydroquinolin-4-yl)methyl)-N-phenylfuran-2-carboxamide]: the EC50 is ≤ 5 µM.

Turning to `Cc1ccc2[nH]c(=O)cc(CN(C(=O)c3ccco3)c3ccccc3)c2c1` [Example 21, N-((6-Methyl-2-oxo-1,2-dihydroquinolin-4-yl)methyl)-N-phenylfuran-2-carboxamide], the EC50 was ≤ 5 µM.

Regarding `O=c1cc(CN(Cc2ccco2)c2ccccc2)c2ccccc2[nH]1` [Example 22, 4-(((Furan-2-ylmethyl)(phenyl)amino)methyl)quinolin-2(1H)-one], the EC50 is ≤ 5 µM.

With `O=c1cc(CN(CCc2ccco2)c2ccccc2)c2ccccc2[nH]1` [Example 23, 4-(((2-(Furan-2-yl)ethyl)(phenyl)amino)methyl)quinolin-2(1H)-one], the EC50 was ≤ 5 µM.

On to `O=c1cc(CN(CCCc2ccco2)c2ccccc2)c2ccccc2[nH]1` [Example 24, 4-(((3-(Furan-2-yl)propyl)(phenyl)amino)rmethyl)quinolin-2(1H)-one], for which the 50% effective concentration (EC50) was ≤ 5 µM.

Take `O=C(Cc1ccccc1)N(Cc1cc(=O)[nH]c2ccccc12)c1ccccc1` [Example 25, N-((2-Oxo-1,2-dihydroquinolin-4-yl)methyl)-N,2-diphenylacetamide]: the EC50 was ≤ 5 µM.

Regarding `O=C(c1ccoc1)N(Cc1cc(=O)[nH]c2ccccc12)c1ccccc1` [Example 26, N-((2-Oxo-1,2-dihydroquinolin-4-yl)methyl)-N-phenylfuran-3-carboxamide], the EC50 was > 5 µM.

Consider `O=C(c1cncs1)N(Cc1cc(=O)[nH]c2ccccc12)c1ccccc1` [Example 27, N-((2-Oxo-1,2-dihydroquinolin-4-yl)methyl)-N-phenylthiazole-5-carboxamide], for which the EC50 was > 5 µM.

As to `O=C(c1cscn1)N(Cc1cc(=O)[nH]c2ccccc12)c1ccccc1` [Example 28, N-((2-Oxo-1,2-dihydroquinolin-4-yl)methyl)-N-phenylthiazole-4-carboxamide], the EC50 is > 5 µM.

For the molecule `Cc1ncsc1C(=O)N(Cc1cc(=O)[nH]c2ccccc12)c1ccccc1` [Example 29, 4-Methyl-N-((2-oxo-1,2-dihydroquinolin-4-yl)methyl)-N-phenylthiazole-5-carboxamide], the EC50 was > 5 µM.

As to `Cc1noc(C)c1C(=O)N(Cc1cc(=O)[nH]c2ccccc12)c1ccccc1` [Example 30, 3,5-Dimethyl-N-((2-oxo-1,2-dihydroquinolin-4-yl)methyl)-N-phenylisoxazole-4-carboxamide], the EC50 was > 5 µM.

`Cc1oncc1C(=O)N(Cc1cc(=O)[nH]c2ccccc12)c1ccccc1` [Example 31, 5-Methyl-N-((2-oxo-1,2-dihydroquinolin-4-yl)methyl)-N-phenylisoxazole-4-carboxamide]: the EC50 was > 5 µM.

`O=C(c1ccccn1)N(Cc1cc(=O)[nH]c2ccccc12)c1ccccc1` [Example 32, N-((2-Oxo-1,2-dihydroquinolin-4-yl)methyl)-N-phenylpicolinamide]: the EC50 is > 5 µM.

Turning to `O=C(c1cccnc1)N(Cc1cc(=O)[nH]c2ccccc12)c1ccccc1` [Example 33, N-((2-Oxo-1,2-dihydroquinolin-4-yl)methyl)-N-phenylnicotinamide], the EC50 is > 5 µM.

In the case of `O=C(c1ccncc1)N(Cc1cc(=O)[nH]c2ccccc12)c1ccccc1` [Example 34, N-((2-Oxo-1,2-dihydroquinolin-4-yl)methyl)-N-phenylisonicotinamide], the EC50 was > 5 µM.

Take `Cc1cnc(C(=O)N(Cc2cc(=O)[nH]c3ccccc23)c2ccccc2)cn1` [Example 35, 5-Methyl-N-((2-oxo-1,2-dihydroquinolin-4-yl)methyl)-N-phenylpyrazine-2-carboxamide]: the EC50 was ≤ 5 µM.

In the case of `O=C(c1cnccn1)N(Cc1cc(=O)[nH]c2ccccc12)c1ccccc1` [Example 36, N-((2-Oxo-1,2-dihydroquinolin-4-yl)methyl)-N-phenylpyrazine-2-carboxamide], the EC50 is > 5 µM.

On to `Cc1ncccc1C(=O)N(Cc1cc(=O)[nH]c2ccccc12)c1ccccc1` [Example 37, 2-Methyl-N-((2-oxo-1,2-dihydroquinolin-4-yl)methyl)-N-phenylnicotinamide], for which the concentration for a half-maximal effect (EC50) is ≤ 5 µM.

As to `Cc1cccnc1C(=O)N(Cc1cc(=O)[nH]c2ccccc12)c1ccccc1` [Example 38, 3-Methyl-N-((2-oxo-1,2-dihydroquinolin-4-yl)methyl)-N-phenylpicolinamide], the EC50 was > 5 µM.

Take `Cc1ncsc1C(=O)N(Cc1cc(=O)[nH]c2ccccc12)c1ccc(F)c(Cl)c1` [Example 39, N-(3-Chloro-4-fluorophenyl)-4-methyl-N-((2-oxo-1,2-dihydroquinolin-4-yl)methyl)thiazole-5-carboxamide]: the EC50 was > 5 µM.

As to `Cc1ncsc1C(=O)N(Cc1cc(=O)[nH]c2ccccc12)c1cccc(C(F)(F)F)c1` [Example 40, 4-Methyl-N-((2-oxo-1,2-dihydroquinolin-4-yl)methyl)-N-(3-(trifluoromethyl)phenyl)thiazole-5-carboxamide], the EC50 was > 5 µM.

With `Cc1ncsc1C(=O)N(Cc1cc(=O)[nH]c2ccccc12)c1ccc(F)c(F)c1` [Example 41], the EC50 was > 5 µM.

With `Cc1ncsc1S(=O)(=O)N(Cc1cc(=O)[nH]c2c(F)cccc12)c1cccc(Cl)c1` [Example 42, N-(3-Chlorophenyl)-N-((8-fluoro-2-oxo-1,2-dihydroquinolin-4-yl)methyl)-4-methylthiazole-5-sulfonamide], the EC50 was ≤ 5 µM.
